Measured values taken from paper PMC7956166, “Phage-Display Based Discovery and Characterization of Peptide Ligands against WDR5” (Molecules, 2021).
Positions of bridges follow the written chain, without caps; N, C: chain ends. Residues, ends and D or L forms follow the SMILES beside them. No end group written: not given here.

Target: T1, WDR5 (Homo sapiens, UniProt P61964)
T1 construct: DNA fragment encoding amino acids 23 to 483 of WDR5 subcloned in the pET-28a plasmid; His6 (N); SUMO (N); made in house; host or cells: Escherichia coli BL21(DE3)
Test: Fluorescence polarization (FP) competitive binding assay
Conditions: for EC50: FP competitive assay vs fluorescently labeled tracer (2.5 nM), 0.2 M phosphate, 300 mM NaCl, 0.1% CHAPS, pH 6.5, 0.5 mM TCEP, 4 h incubation, 384-well plate, two independent experiments; for EC50 / Ki: mean ± standard error; for Ki: Ki from nonlinear regression fitting based on Kd of the probe, protein 5 nM
Experimental: The fluorescence polarization (FP) binding assays used to evaluate the ability of these cyclic peptides targeting protein WDR5 were carried out in the 384-well plate. We synthesized the fluorescently labeled positive compound [28, 29]: 1-((3′,6′-dihydroxy-3-oxo-3H-spiro[isobenzofuran-1,9′-xanthen]-5-yl)amino)-N-(3′-(3,5-dimethylbenzamido)-4′-(4-methylpiperazin-1-yl)-[1,1′-biphenyl]-4-yl)-1-thioxo-5,8,11-trioxa-2-azatetradecan-14-amide, which was used in direct binding assay against WDR5. 10 μL of 10 nM positive compound was added to 20 μL WDR5(the final concentration was 5 nM) in the buffer containing 0.2 M phosphate; 300 mM NaCl; 0.1%CHAPS; PH 6.5; 0.5 mM TCEP. Then the peptide compound to be tested was diluted in a gradient and added to each well with 10μL. Finally, the assay was carried out in 40 μL volume and the protein tracer mixture was incubated for 4 h before reading the plate. The fluorescence polarization was measured in Synergy™ Neo2 Multi-Mode Microplate Reader using an excitation filter at 485 nm and an emission filter at 535 nm. Each experiment was done two times and each polarization readings consisted of two averaged measurements. The reading is processed by the following formula:(1) Inhibition=C−F/C−B×100% where C is the anisotropy value of the fluorescence substrate bound to the protein completely, B is the anisotropy value of the fluorescence substrate, F is the corresponding anisotropy value after adding different concentrations of peptides. The data were plotted against the log peptide concentration and was fitted into a one site-Fit logIC50 equation with Graphpad Prim5 software using nonlinear regression model to obtain the competitive curve:(2) Y=A+B−A/1+10^(x−LogIC50) where x is log10 of the compound concentration in M, Y is the inflection point (EC50 or IC50), A is the bottom plateau effect, B is the top plateau effect. Potency (IC50/EC50) is the log of the concentration of competitor that results in binding half-way between bottom and top.
The EC50 values of peptides were determined in competitive binding experiments by nonlinear regression fitting of the competition curves as mentioned above. And Ki values of competitive inhibitors were obtained directly by nonlinear regression fitting, based upon the Kd values of the probe to different proteins and concentrations of the proteins and probes in the competitive assays. The data is processed by the following formula:(3) F0=P+L0+Kd−(P+L0+Kd)^2−4×P×L0/2×L0 (4) IC50/F0×Kd/(1−F0)(2−F0)+F0×L0/2=Ki(2−F0)/Kd×F0+1 where P is the proteins concentration in the assay (5 nM), L0 is the Tracer concentration in the assay (2.5 nM), F0 and the corresponding Ki value can be calculated according to the above formula.

[1] = FP competitive assay, tracer 2.5 nM

| Molecule | binding to WDR5 (in words) (FP competitive assay, WDR5 5 nM, tracer 2.5 nM, pH 6.5) | EC50 (WDR5 5 nM) [nM] | Ki [1] [nM] |
| --- | --- | --- | --- |
| CEKMVATHC (disulfide 1-9 (inferred)) [D206116, disulfide-constrained cyclic peptide from phage display, without “RT” motif] | unable to bind to WDR5 | – | – |
| CC(C)C[C@@H]1NC(=O)[C@H]([C@@H](C)O)NC(=O)[C@H](CCCNC(=N)N)NC(=O)[C@@H](N)CSSC[C@@H](C(=O)O)NC(=O)[C@H](CO)NC(=O)CNC(=O)[C@H](Cc2ccccc2)NC(=O)[C@@H]2CCCN2C1=O [D206181] (H-CRTLPFGSC-OH; disulfide 1-9) | – | 4400 ± 400 | 900 ± 80 |
| CC(C)C[C@@H]1NC(=O)[C@H]([C@@H](C)O)NC(=O)[C@H](CCCNC(=N)N)NC(=O)[C@@H](N)CSSC[C@@H](C(=O)O)NC(=O)[C@H](C)NC(=O)CNC(=O)[C@H](Cc2ccc(O)cc2)NC(=O)[C@@H]2CCCN2C1=O [D206180] (H-CRTLPYGAC-OH; disulfide 1-9) | – | 2700 ± 200 | 500 ± 50 |
| CC(C)C[C@@H]1NC(=O)[C@H]([C@@H](C)O)NC(=O)[C@H](CCCNC(=N)N)NC(=O)[C@@H](N)CSSC[C@@H](C(=O)O)NC(=O)[C@H](CCC(=O)O)NC(=O)[C@H](Cc2c[nH]cn2)NC(=O)[C@H](Cc2ccccc2)NC(=O)[C@@H]2CCCN2C1=O [D206115] (H-CRTLPFHEC-OH; disulfide 1-9) | – | 5900 ± 200 | 1200 ± 40 |
| CC(C)C[C@@H]1NC(=O)[C@H]([C@@H](C)O)NC(=O)[C@H](CCCNC(=N)N)NC(=O)[C@@H](N)CSSC[C@@H](C(=O)O)NC(=O)[C@H](CC(N)=O)NC(=O)[C@H](CC(N)=O)NC(=O)[C@H](Cc2c[nH]c3ccccc23)NC(=O)[C@@H]2CCCN2C1=O [D206179] (H-CRTLPWNNC-OH; disulfide 1-9) | – | 2300 ± 600 | 500 ± 100 |
